System: ApoE mouse
Assay: PET imaging of [^18F]NP-59 in a control BL6 mouse and an ApoE mouse
Format: in vivo
Method: [^18F]NP-59 was injected into a control BL6 mouse and an ApoE mouse of similar weight. Equivalent activities were injected into each mouse, and PET images taken approximately 60 minutes after injection are shown in FIG. 1. The images are PET maximal intensity projection images in the oblique coronal plane to obtain relevant anatomic structures. In the upper right-hand corner of each image are axial images through the carotid artery.

CC(C)CCC[C@@H](C)[C@H]1CCC2C3C[C@@H](C[18F])C4=C(CC[C@H](O)C4)C3CC[C@@]21C (stereo partly drawn) [[^18F]NP-59]
differential uptake between the mice (PET) (ApoE mouse (atherosclerotic disease) vs control BL6 mouse, equivalent activities injected, PET approximately 60 minutes after injection): higher uptake in the ApoE mouse | background uptake (PET) (ApoE mouse vs BL6 mouse of similar weight, identical amounts of tracer injected): higher background uptake | organs showing uptake of the compound (PET images) (BL6 and ApoE mice, PET approximately 60 minutes after injection): uptake of the compound in the liver, adrenal glands, and liver

Reference: patent US20210355154A1, “Halogenated Cholesterol Analogues and Methods of Making and Using Same” (THE REGENTS OF THE UNIVERSITY OF MICHIGAN, priority 2018, published 2021)
